Data reported in ChEMBL document CHEMBL1145595, “5-Substituted isophthalamides as insulin receptor sensitizers” (Bioorg Med Chem Lett, 2008).
The source made the active and inactive calls. The calls are words filed in the database; no cut-off is given here.

system: not listed separately; test: (§1) Activity at Insulin receptor in mouse 3T3-L1 cells assessed as glucose uptake; type: cell-based

Row | SMILES | EC50 [µM]
1 | O=C(Nc1cc(C(=O)Nc2cccc3cc(S(=O)(=O)O)ccc23)cc(C(=O)Nc2cccc3cc(S(=O)(=O)O)ccc23)c1)c1ccc(Cl)cc1 | 72.8
2 | O=C(Nc1ccc2c(O)c(/N=N/c3ccc(/N=N/c4ccc(S(=O)(=O)O)cc4)cc3S(=O)(=O)O)c(S(=O)(=O)O)cc2c1)Nc1ccc2c(O)cc(S(=O)(=O)O)c(/N=N/c3ccc(/N=N/c4ccc(S(=O)(=O)O)cc4)cc3S(=O)(=O)O)c2c1 | 90
3 | O=C(Nc1cc(C(=O)Nc2cccc3cc(S(=O)(=O)O)ccc23)cc(C(=O)Nc2cccc3cc(S(=O)(=O)O)ccc23)c1)c1cccc(F)c1 | 19.4
4 | O=C(Nc1cc(C(=O)Nc2cccc3cc(S(=O)(=O)O)ccc23)cc(C(=O)Nc2cccc3cc(S(=O)(=O)O)ccc23)c1)c1ccc2ccccc2c1 | 3.7
5 | O=C(Nc1cc(C(=O)Nc2cccc3ccccc23)cc(C(=O)Nc2cccc3cc(S(=O)(=O)O)ccc23)c1)c1cccc(Cl)c1 | 66.5
6 | O=C(Nc1cc(C(=O)Nc2cccc3cc(S(=O)(=O)O)ccc23)cc(C(=O)Nc2cccc3cc(S(=O)(=O)O)ccc23)c1)c1cccc(Cl)c1 | 5.7
7 | O=C(Nc1cc(C(=O)Nc2cccc3cc(O)ccc23)cc(C(=O)Nc2cccc3cc(S(=O)(=O)O)ccc23)c1)c1cccc(Cl)c1 | 61.7
8 | O=C(Nc1cccc2cc(S(=O)(=O)O)ccc12)c1cc(NC(=O)c2cccc3ccccc23)cc(C(=O)Nc2cccc3cc(S(=O)(=O)O)ccc23)c1 | 12.8
9 | O=C(Nc1cc(C(=O)Nc2cccc3cc(S(=O)(=O)O)ccc23)cc(C(=O)Nc2cccc3cc(S(=O)(=O)O)ccc23)c1)c1cccc([N+](=O)[O-])c1 | 44.5
10 | O=C(Nc1cc(C(=O)Nc2cccc3cc(S(=O)(=O)O)ccc23)cc(C(=O)Nc2cccc3cc(S(=O)(=O)O)ccc23)c1)c1ccc(F)cc1 | 78.5
11 | O=C(Nc1cccc2cc(S(=O)(=O)O)ccc12)c1cc(C(=O)Nc2cccc3cc(S(=O)(=O)O)ccc23)cc(C(=O)Nc2cccc3cc(S(=O)(=O)O)ccc23)c1 | 135

system: 3T3-L1; test: as §1; type: cell-based

Row | SMILES | Activity
12 | O=C(Nc1cc(C(=O)Nc2cccc3cc(S(=O)(=O)O)ccc23)cc(C(=O)Nc2cccc3cc(S(=O)(=O)O)ccc23)c1)c1ccc([N+](=O)[O-])cc1 | inactive
13 | O=C(Nc1cc(C(=O)Nc2cccc3cc(S(=O)(=O)O)ccc23)cc(C(=O)Nc2cccc3cc(S(=O)(=O)O)ccc23)c1)c1ccncc1 | inactive
14 | O=C(Nc1cccc2cc(S(=O)(=O)O)ccc12)c1cc(NC(=O)c2ccco2)cc(C(=O)Nc2cccc3cc(S(=O)(=O)O)ccc23)c1 | inactive
15 | O=C(Nc1cccc2cc(S(=O)(=O)O)ccc12)c1cc(NC(=O)c2cnc3ccccc3n2)cc(C(=O)Nc2cccc3cc(S(=O)(=O)O)ccc23)c1 | inactive
16 | O=C(Nc1cccc(Cl)c1)Nc1cc(C(=O)Nc2cccc3cc(S(=O)(=O)O)ccc23)cc(C(=O)Nc2cccc3cc(S(=O)(=O)O)ccc23)c1 | inactive
17 | O=C(Nc1cccc2cc(S(=O)(=O)O)ccc12)c1cc(NC(=O)C2CCCCC2)cc(C(=O)Nc2cccc3cc(S(=O)(=O)O)ccc23)c1 | inactive
18 | O=C(Nc1cccc2cc(S(=O)(=O)O)ccc12)c1cc(NS(=O)(=O)c2ccc(F)cc2)cc(C(=O)Nc2cccc3cc(S(=O)(=O)O)ccc23)c1 | inactive
19 | O=C(Cc1cccc(Cl)c1)Nc1cc(C(=O)Nc2cccc3cc(S(=O)(=O)O)ccc23)cc(C(=O)Nc2cccc3cc(S(=O)(=O)O)ccc23)c1 | inactive
20 | O=C(Nc1cc(C(=O)Nc2cccc3cc(S(=O)(=O)O)ccc23)cc(C(=O)Nc2cccc3cc(S(=O)(=O)O)ccc23)c1)c1cccnc1 | inactive
